The results in this text go back to patent publication US11555015B2, “Compounds useful in the treatment of autoimmune and inflammatory disorders” (Arena Pharmaceuticals, Inc., priority 2018, dated 2023).

Broadly, the EC50 is the concentration that produces a half-maximal response.

Molecules are shown by their SMILES.

S1P1, sequence (P21453 whole entry, species assumed): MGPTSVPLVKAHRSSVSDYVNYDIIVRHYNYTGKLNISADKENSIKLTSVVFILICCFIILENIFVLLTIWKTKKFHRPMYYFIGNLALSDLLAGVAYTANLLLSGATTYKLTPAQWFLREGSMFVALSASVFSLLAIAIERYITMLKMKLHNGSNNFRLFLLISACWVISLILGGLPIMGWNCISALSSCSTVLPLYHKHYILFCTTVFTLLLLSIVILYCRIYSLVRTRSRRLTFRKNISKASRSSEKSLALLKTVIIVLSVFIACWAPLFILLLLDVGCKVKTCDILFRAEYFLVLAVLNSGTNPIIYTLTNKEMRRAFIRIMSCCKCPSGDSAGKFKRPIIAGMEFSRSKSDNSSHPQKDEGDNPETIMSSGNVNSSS

The experiment concerns the target S1P1 (Homo sapiens, UniProt P21453). Description: Beta arrestin assay (in vitro S1P1 activity). The experiment is classed as cell-based. The note with it: in vitro beta-arrestin agonist assay. How it is done: The in vitro S1P1 activity was determined in the beta arrestin assay.
`O=C(C[C@H]1CCc2c1[nH]c1ccc(OCc3ccc(C4CCCC4)c(C(F)(F)F)c3)cc21)OC1O[C@H](C(=O)O)[C@@H](O)[C@H](O)[C@H]1O` (stereo partly drawn) [Compound 1, (2S,3S,4S,5R)-6-(2-((R)-7-((4-cyclopentyl-3-(trifluoromethyl)benzyl)oxy)-1,2,3,4-tetrahydrocyclopenta[b]indol-3-yl)acetoxy)-3,4,5-trihydroxytetrahydro-2H-pyran-2-carboxylic acid] gave an EC50 of 3.9 nM.

Compound `O=C(O)CC1CCc2c1[nH]c1ccc(OCc3ccc(C4CCCC4O)c(C(F)(F)F)c3)cc21` (mixture of isomers) [Compound 4, 2-(7-((4-(2-hydroxycyclopentyl)-3-(trifluoromethyl)benzyl)oxy)-1,2,3,4-tetrahydrocyclopenta[b]indol-3-yl)acetic acid] yielded an EC50 of 3.66 nM.

In turn, `O=C(O)CC1CCc2c1[nH]c1ccc(OCc3ccc(C4CCCC4O)c(C(F)(F)F)c3)cc21` (centres unmarked) [Compound 4-1, 2-(7-((4-(2-Hydroxycyclopentyl)-3-(trifluoromethyl)benzyl)oxy)-1,2,3,4-tetrahydrocyclopenta[b]indol-3-yl)acetic Acid] had an EC50 of 16.7 nM.

As for `O=C(O)CC1CCc2c1[nH]c1ccc(OCc3ccc(C4CCC(O)C4)c(C(F)(F)F)c3)cc21` (single isomer, unassigned) [Compound 2-2, 2-(7-((4-(3-Hydroxycyclopentyl)-3-(trifluoromethyl)benzyl)oxy)-1,2,3,4-tetrahydrocyclopenta[b]indol-3-yl)acetic Acid], the midpoint of the response, the EC50, lay at 85.6 nM.

In turn, `O=C(O)CC1CCc2c1[nH]c1ccc(OCc3ccc(C4CCC(O)C4)c(C(F)(F)F)c3)cc21` (single isomer, unassigned) [Compound 2-1, 2-(7-((4-(3-Hydroxycyclopentyl)-3-(trifluoromethyl)benzyl)oxy)-1,2,3,4-tetrahydrocyclopenta[b]indol-3-yl)acetic Acid] had an EC50 of 52.1 nM.
